In ChEMBL document CHEMBL1129816, “Synthesis of 4-trifluoromethylsteroids: A novel class of steroid 5-reductase inhibitors” (Bioorg Med Chem Lett, 1997):

Tests used:
[1] = In vitro inhibitory activity against Steroid 5-alpha-reductase by using enzymic kinetics method
[2] = In vitro inhibitory activity against Steroid 5-alpha-reductase by using isotope method

SMILES	Ki [1] [nM]	Ki [2] [nM]
C[C@]12CCC(=O)C(C(F)(F)F)=C1CCC1C2CC[C@]2(C)C(=O)CCC12 (stereo partly drawn)	28.8	95.2
CC(=O)[C@H]1CCC2C3CCC4=C(C(F)(F)F)C(=O)CC[C@]4(C)C3CC[C@@]21C (stereo partly drawn)	> 1000	> 1000
CC(C)(C)NC(=O)[C@H]1CC[C@H]2[C@@H]3CC[C@H]4NC(=O)C=C[C@]4(C)[C@H]3CC[C@]12C [FINASTERIDE]	54.7	88.2
CC(C)(C)NC(=O)[C@H]1CCC2C3CCC4=C(C(F)(F)F)C(=O)CC[C@]4(C)C3CC[C@@]21C (stereo partly drawn)	20.2	20.9
